Measured values: US8748618B2, “Inhibitors of inv(16) leukemia” (University of Virginia Patent Foundation, priority 2009, dated 2014)
Values belong to the compound of their own block, whether it stands above or below them.

Columns and labels:
[1] = molecular target: CBFβ-SMMHC:RD (CBFβ-SMMHC binding to the Runt domain); experiment: FRET assay, inhibition of CBFβ-SMMHC binding to the Runt domain; conditions: for IC50 FRET (CBFβ-SMMHC:RD, 20 nM both): 20 nM both proteins
Experimental: FRET assay. […] We fused the green fluorescent protein derivative Cerulean to the N-terminus of the Runt domain and the green fluorescent protein derivative Venus to the N-terminus of CBFβ-SMMHC (as well as to CBFβ (Gorczynski, Grembecka et al. 2007)). The ratio of the emission intensities at 525 nm and 474 nm, measured after excitation at 433 nm, was used as the readout in this assay. The dynamic range for the FRET assay was determined by adding a 30-fold excess of untagged CBFβ-SMMHC (or CBFβ in the case of CBFβ—Runt domain binding) to the assay and the associated change in the FRET ratio was defined as 100% inhibition.
As shown by Shoichet and co-workers (Seidler, McGovern et al. 2003), a primary source of false positives in any screen is micelle formation. […] A substantial loss of activity in the presence of detergent is a hallmark of inhibition by micelle formation and such compounds are thus identified as false positives. In addition, we are also incubating compound with protein and checking by mass spectroscopy to ensure that positive hits are not acting by covalent addition to either of the proteins.

[2] = test system: ME-1 cells; experiment: MTT viability assay, growth of ME-1 cells; format: cell-based, human
Text: (§1) We have tested several of the compounds we have synthesized for their effects on ME-1 cells, a leukemia cell line harboring the inv(16) (Yanagisawa, Horiuchi et al. 1991). […] AI-4-57 has also been tested against the Kasumi-1, Jurkat, and RS4; 11 leukemia cell lines (FIG. 4.B). […] We have also examined effects on apoptosis using flow cytometry to measure Annexin V/PI (propidium iodide) positivity. […] The selectivity for specific cell lines and the correlation of activity in the FRET assay with effects on inv(16) cells all support the hypothesis that the compounds are hitting the desired target.
The dimer with a 7 atom linker (AI-4-62) has been tested for effects on the growth of the ME-1 cell line (see FIG. 7), a leukemia cell line with the inv(16).

[3] = molecular target: CBFβ (Homo sapiens (Human), UniProt Q13951); experiment: NMR chemical shift perturbation with CBFβ; format: binding; conditions: for NMR with CBFβ + 250 uM compound, CSP G 112: residue G 112; for NMR with CBFβ + 250 uM compound, CSP K 98: residue K 98
Sequence of CBFβ (Q13951 1-141, species assumed): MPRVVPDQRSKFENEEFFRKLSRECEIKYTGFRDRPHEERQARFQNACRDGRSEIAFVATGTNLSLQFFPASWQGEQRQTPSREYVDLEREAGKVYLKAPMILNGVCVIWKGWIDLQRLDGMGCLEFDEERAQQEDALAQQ
Text: Validation of binding of a small molecule inhibitor to its protein target is an essential step in developing potent inhibitors. This can be readily achieved using either NMR spectroscopy or X-ray crystallography. In the case of X-ray crystallography, this is achieved by co-crystallization of the protein with the ligand and determination of the structure. In the case of NMR spectroscopy, the structure of a compound-protein complex can also be determined. In addition, chemical shift perturbations of the protein NMR spectrum (typically 2D ^15N—^1H HSQC or ^13C—^1H HSQC) in the presence of compounds can both confirm binding to the target and localize the binding site on a protein (Pellecchia, Sem et al. 2002; Salvatella and Giralt 2003). The latter method is a quick and efficient method to confirm binding to the protein and to determine the binding site when appropriate labeled samples are available and the resonance assignments are known. Such data can also be used to dock the small molecule to the protein. Because the structure of CBFβ has been solved by NMR (Huang, Peng et al. 1999), resonance assignments are available and we have employed this approach as an additional screen to ensure the validity of the inhibitors we are developing and to determine the binding site (see below).

[4] = test system: Jurkat cells; experiment: MTT assay, growth of Jurkat cells; format: cell-based
Text: as §1
(§2) Below are two exemplary dimeric compound formulas, shown here without the possible substituents indicated elsewhere herein.

[5] = test system: Kasumi-1 cells; experiment: MTT assay, growth of Kasumi-1 cells; format: cell-based
Text: as §1, §2

[6] = test system: RS4; 11 cells; experiment: MTT assay, growth of RS4;11 cells; format: cell-based
Text: as §1, §2

[7] = test system: normal bone marrow mononuclear cells; experiment: Effect on normal bone marrow mononuclear cells (control of the leukemia initiating cell test); format: cell-based
Text: (§3) Dr. Lucio Castilla's lab has identified a specific population of cells referred to as leukemia initiating cells using mouse models of inv(16) leukemia (Kuo, Y. H., et al., Cbf beta-SMMHC induces distinct abnormal myeloid progenitors able to develop acute myeloid leukemia. Cancer Cell, 2006. 9(1): p. 57-68). […] Upon acquisition of such secondary mutations, these cells can progress to overt leukemia. These cells are also typically more resistant to traditional cytotoxic chemotherapy and therefore represent a pool of cells from which relapse can occur. We have tested AI-4-83 against this pool of cells and shown that the compound is very effective at inducing apoptosis in this population.

[8] = test system: human bone marrow mononuclear cells (BM MNCs); experiment: MTT assay on human bone marrow mononuclear cells; format: cell-based; conditions: 48 hour treatment, up to 10 μM
Experimental: (§4) We have tested AI-4-83 on human bone marrow mononuclear cells (for toxicity) and on one inv(16) patient sample using an MTT assay after a 48 hour compound treatment.

[9] = test system: inv(16) patient sample cells; experiment: MTT assay on inv(16) patient sample; format: cell-based, human; conditions: 48 hour treatment, 10 μM
Experimental: as §4

[10] = test system: CDKN1a gene expression; experiment: CDKN1a gene expression by RT-PCR in ME-1 cells; format: cell-based, human; conditions: 10, 5 and 2.5 μM, FIG. 9
Text: The effects of the dimeric inhibitor AI-4-83 on CDKN1a gene expression were examined using RT-PCR. […] In addition, the effect of AI-4-83 is much more substantial than that for the monomeric compound, supporting the increased efficacy of the dimeric versus monomeric compounds.

[11] = test system: inv(16) leukemia initiating cells; experiment: Apoptosis of inv(16) leukemia initiating cells from a mouse model; format: cell-based; conditions: 3 day treatment, 2 μM, FIG. 12
Text: as §3

[12] = test system: inv(16) repression (CBFβ-SMMHC) at RUNX binding site reporter; experiment: Luciferase reporter assay of inv(16) repression; format: cell-based; conditions: FIG. 10
Text: A luciferase reporter assay has been developed to test the effects of inhibitors on inv(16) repression. Expression of luciferase is driven by multiple copies of a RUNX binding site using endogenous RUNX and CBFβ. CBFβ-SMMHC is expressed in these cells, resulting in repression of luciferase expression.

Compound: FC(F)(F)c1cccc2[nH]c(-c3ccccn3)nc12 [AI-4-47]
IC50 FRET (CBFβ-SMMHC:RD, 20 nM both) ([1]; Table 1 monomers): Interference with assay

Compound: COc1ccc2[nH]c(-c3ccccn3)nc2c1 [AI-4-57]
Growth of ME-1 cells ([2]; MTT, FIG. 4A): effective inhibition of growth
NMR with CBFβ + 250 uM compound, CSP G 112 [3]: 0.039 ppm
NMR with CBFβ + 250 uM compound, CSP K 98 [3]: 0.026 ppm
Growth of Jurkat cells ([4]; MTT, FIG. 4B): No effect on growth
Growth of Kasumi-1 cells ([5]; MTT, FIG. 4B): modest effect
Growth of RS4;11 cells ([6]; MTT, FIG. 4B): No effect on growth

Compound: COc1ccc(-c2nc3cc(OC)ccc3[nH]2)nc1 [AI-4-61]
NMR with CBFβ + 250 uM compound, CSP G 112 [3]: 0.015 ppm
NMR with CBFβ + 250 uM compound, CSP K 98 [3]: 0.013 ppm

Compound: COc1ccc2[nH]c(-c3ccc(OCCOCCOc4ccc(-c5nc6cc(OC)ccc6[nH]5)nc4)cn3)nc2c1 [AI-4-62]
Effect on normal bone marrow mononuclear cells [7]: no effect
Viability of bone marrow mononuclear cells [8]: no effect on the viability
Viability of inv(16) patient sample [9]: substantial effect
inhibition at 10 µM ([2]; Homo sapiens, ME-1, 10 μM): 100%
Potency of dimer relative to the corresponding monomer on ME-1 cells ([2]; MTT, FIG. 7): ~15 fold
Effect on Jurkat cells ([4]; 10 μM, FIG. 8): little to no effect
CDKN1a gene expression [10]: dose-dependent substantial increase
Effect on Kasumi-1 cells ([5]; 10 μM, FIG. 8): little to no effect
Cell death of leukemia initiating cells [11]: 80%
Effect on RS4;11 cells ([6]; 10 μM, FIG. 8): little to no effect
Luciferase activity [12]: dose-dependent increase in luciferase activity

Compound: CC(C)Oc1ccc2[nH]c(-c3ccccn3)nc2c1 [AI-4-70]
NMR with CBFβ + 250 uM compound, CSP G 112/K 98 (in words) [3]: No CSP

Compound: c1ccc(-c2nc3cc(N4CCOCC4)ccc3[nH]2)nc1 [AI-10-3]
NMR with CBFβ + 250 uM compound, CSP G 112/K 98 (in words) [3]: No CSP

Compound: CN(C)c1ccc2[nH]c(-c3ccc(OCCOCCOc4ccc(-c5nc6cc(N(C)C)ccc6[nH]5)nc4)cn3)nc2c1 [AI-10-21]
IC50 FRET (CBFβ-SMMHC:RD, 20 nM both) ([1]; Table 2 dimers): Interference with assay

Next, values leading:

NMR with CBFβ + 250 uM compound, CSP G 112 [3]: 0.037 ppm
NMR with CBFβ + 250 uM compound, CSP K 98 [3]: 0.027 ppm
Compound: CSc1ccc2[nH]c(-c3ccccn3)nc2c1 [AI-10-35]

NMR with CBFβ + 250 uM compound, CSP G 112/K 98 (in words) [3]: No CSP
Precipitation in the NMR sample ([3]; 250 uM compound with CBFβ): some precipitation
Compound: FC(F)(F)Oc1ccc2[nH]c(-c3ccccn3)nc2c1 [AI-10-47]

NMR with CBFβ + 250 uM compound, CSP G 112 [3]: 0.028 ppm
NMR with CBFβ + 250 uM compound, CSP K 98 [3]: 0.02 ppm
Compound: COc1ccc2[nH]c(-c3ncccc3OC)nc2c1 [AI-10-53]

NMR with CBFβ + 250 uM compound, CSP G 112/K 98 (in words) [3]: No CSP
Compound: O=C(O)c1ccc2[nH]c(-c3ccccn3)nc2c1 [AI-10-57]

NMR with CBFβ + 250 uM compound, CSP G 112/K 98 (in words) [3]: No CSP
Compound: Oc1ccc2[nH]c(-c3ccccn3)nc2c1 [AI-10-61]

Δ500 [1]: Δ500 = 61%
Compound: Cc1cccnc1-c1nc2cc(OC(F)(F)F)ccc2[nH]1 [AI-10-63]

Δ500 [1]: Δ500 = 50%
Compound: FC(F)(F)Oc1ccc2[nH]c(-c3ncccc3C(F)(F)F)nc2c1 [AI-10-64]

Δ167 [1]: Δ167 = 18%
Compound: COc1ccc2[nH]c(-c3ncccc3C(F)(F)F)nc2c1 [AI-10-69]

Δ500 [1]: Δ500 = 61%
Compound: NC(=O)c1ccc2[nH]c(-c3ccccn3)nc2c1 [AI-10-70]
